# Data published in the supplement of paper PMC10307832.
# Columns and labels:
# Assay in all cases: relative viability (nuclei count vs DMSO), 5 days (fraction); higher = more cells survive
# [1] = system: NCI-H1755
# Method in brief: (§1)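 Medians of duplicate plates are given as relative viability. That measure is the nuclei count in treated wells divided by the count in vehicle wells. Counts were taken on 4× images of lung cancer cell lines in 1536-well plates, 5 days after pin-tool dosing the day after seeding with one drug alone or a fixed anchor-drug dose plus five library-drug doses (not always all listed) in √10 steps.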
# [2] = system: LCLC-103H
# Method in brief: as §1
# [3] = system: NCI-H1395
# Method in brief: as §1
# [4] = system: A549
# Method in brief: as §1
# [5] = system: HCC-44
# Method in brief: as §1
# [6] = system: EKVX
# Method in brief: as §1
# [7] = system: NCI-H1623
# Method in brief: as §1
# [8] = system: UMC-11
# Method in brief: as §1
# [9] = system: HCC-15
# Method in brief: as §1
structure (smiles),measurement,setting,value
Cc1sc2c(c1C)C(c1ccc(Cl)cc1)=N[C@@H](CC(=O)OC(C)(C)C)c1nnc(C)n1-2 [JQ1] + N=C(N)NC(=N)NCCc1ccccc1 [Phenformin] (partner 250 µM),relative viability,[1]; first compound 0.04 µM,0.687
same,relative viability,[1]; first compound 0.1265 µM,0.501
same,relative viability,[1]; first compound 0.4 µM,0.506
same,relative viability,[1]; first compound 1.265 µM,0.462
same,relative viability,[1]; first compound 4 µM,0.419
same,relative viability,[2]; first compound 0.04 µM,0.345
same,relative viability,[2]; first compound 0.1265 µM,0.308
same,relative viability,[2]; first compound 0.4 µM,0.371
same,relative viability,[2]; first compound 1.265 µM,0.268
same,relative viability,[2]; first compound 4 µM,0.28
same,relative viability,[3]; first compound 0.04 µM,0.439
same,relative viability,[3]; first compound 0.1265 µM,0.417
same,relative viability,[3]; first compound 0.4 µM,0.478
same,relative viability,[3]; first compound 1.265 µM,0.455
same,relative viability,[3]; first compound 4 µM,0.396
same,relative viability,[4]; first compound 0.04 µM,0.171
same,relative viability,[4]; first compound 0.1265 µM,0.137
same,relative viability,[4]; first compound 0.4 µM,0.14
same,relative viability,[4]; first compound 1.265 µM,0.182
same,relative viability,[4]; first compound 4 µM,0.21
same,relative viability,[5]; first compound 0.04 µM,0.201
same,relative viability,[5]; first compound 0.1265 µM,0.184
same,relative viability,[5]; first compound 0.4 µM,0.161
same,relative viability,[5]; first compound 1.265 µM,0.125
same,relative viability,[5]; first compound 4 µM,0.111
same,relative viability,[6]; first compound 0.04 µM,0.257
same,relative viability,[6]; first compound 0.1265 µM,0.257
same,relative viability,[6]; first compound 0.4 µM,0.27
same,relative viability,[6]; first compound 1.265 µM,0.243
same,relative viability,[6]; first compound 4 µM,0.218
same,relative viability,[7]; first compound 0.04 µM,0.597
same,relative viability,[7]; first compound 0.1265 µM,0.628
same,relative viability,[7]; first compound 0.4 µM,0.547
same,relative viability,[7]; first compound 1.265 µM,0.486
same,relative viability,[7]; first compound 4 µM,0.406
same,relative viability,[8]; first compound 0.04 µM,0.29
same,relative viability,[8]; first compound 0.1265 µM,0.211
same,relative viability,[8]; first compound 0.4 µM,0.231
same,relative viability,[8]; first compound 1.265 µM,0.224
same,relative viability,[8]; first compound 4 µM,0.195
same,relative viability,[9]; first compound 0.04 µM,0.458
same,relative viability,[9]; first compound 0.4 µM,0.318
same,relative viability,[9]; first compound 1.265 µM,0.189
same,relative viability,[9]; first compound 4 µM,0.19
COc1cc2nccc(Oc3ccc(NC(=O)Nc4cc(C)on4)c(Cl)c3)c2cc1OC [Tivozanib] + CCNC(=O)c1noc(-c2cc(C(C)C)c(O)cc2O)c1-c1ccc(CN2CCOCC2)cc1 [Luminespib] (partner 0.01 µM),relative viability,[1]; first compound 0.005 µM,0.466
same,relative viability,[1]; first compound 0.01581 µM,0.346
same,relative viability,[1]; first compound 0.05 µM,0.406
same,relative viability,[1]; first compound 0.1581 µM,0.329
same,relative viability,[1]; first compound 0.5 µM,0.453
same,relative viability,[2]; first compound 0.005 µM,0.847
same,relative viability,[2]; first compound 0.01581 µM,0.85
same,relative viability,[2]; first compound 0.05 µM,0.91
same,relative viability,[2]; first compound 0.1581 µM,0.964
same,relative viability,[2]; first compound 0.5 µM,0.921
same,relative viability,[3]; first compound 0.005 µM,0.654
same,relative viability,[3]; first compound 0.01581 µM,0.755
same,relative viability,[3]; first compound 0.05 µM,0.852
same,relative viability,[3]; first compound 0.1581 µM,0.706
same,relative viability,[3]; first compound 0.5 µM,0.688
same,relative viability,[5]; first compound 0.005 µM,1.01
same,relative viability,[5]; first compound 0.01581 µM,1.06
same,relative viability,[5]; first compound 0.05 µM,0.927
same,relative viability,[5]; first compound 0.1581 µM,1.19
same,relative viability,[5]; first compound 0.5 µM,1.08
same,relative viability,[6]; first compound 0.005 µM,0.856
same,relative viability,[6]; first compound 0.01581 µM,0.834
same,relative viability,[6]; first compound 0.05 µM,0.879
same,relative viability,[6]; first compound 0.1581 µM,0.908
same,relative viability,[6]; first compound 0.5 µM,0.847
same,relative viability,[7]; first compound 0.005 µM,0.466
same,relative viability,[7]; first compound 0.01581 µM,0.55
same,relative viability,[7]; first compound 0.05 µM,0.602
same,relative viability,[7]; first compound 0.5 µM,0.504
same,relative viability,[8]; first compound 0.005 µM,1.03
same,relative viability,[8]; first compound 0.01581 µM,0.975
same,relative viability,[8]; first compound 0.05 µM,1.03
same,relative viability,[8]; first compound 0.5 µM,1.06
same,relative viability,[9]; first compound 0.005 µM,0.249
same,relative viability,[9]; first compound 0.01581 µM,0.382
same,relative viability,[9]; first compound 0.05 µM,0.327
same,relative viability,[9]; first compound 0.1581 µM,0.398
same,relative viability,[9]; first compound 0.5 µM,0.378
COc1cc2nccc(Oc3ccc(NC(=O)Nc4cc(C)on4)c(Cl)c3)c2cc1OC [Tivozanib] + N=C(N)NC(=N)NCCc1ccccc1 [Phenformin] (partner 250 µM),relative viability,[1]; first compound 0.005 µM,0.585
same,relative viability,[1]; first compound 0.01581 µM,0.605
same,relative viability,[1]; first compound 0.05 µM,0.631
same,relative viability,[1]; first compound 0.1581 µM,0.644
same,relative viability,[1]; first compound 0.5 µM,0.459
same,relative viability,[2]; first compound 0.005 µM,0.325
same,relative viability,[2]; first compound 0.01581 µM,0.326
same,relative viability,[2]; first compound 0.05 µM,0.35
same,relative viability,[2]; first compound 0.1581 µM,0.306
same,relative viability,[2]; first compound 0.5 µM,0.348
same,relative viability,[3]; first compound 0.005 µM,0.357
same,relative viability,[3]; first compound 0.01581 µM,0.475
same,relative viability,[3]; first compound 0.05 µM,0.444
same,relative viability,[3]; first compound 0.1581 µM,0.426
same,relative viability,[3]; first compound 0.5 µM,0.383
same,relative viability,[4]; first compound 0.005 µM,0.171
same,relative viability,[4]; first compound 0.01581 µM,0.163
same,relative viability,[4]; first compound 0.05 µM,0.19
same,relative viability,[4]; first compound 0.1581 µM,0.124
same,relative viability,[4]; first compound 0.5 µM,0.209
same,relative viability,[5]; first compound 0.005 µM,0.152
same,relative viability,[5]; first compound 0.01581 µM,0.234
same,relative viability,[5]; first compound 0.05 µM,0.19
same,relative viability,[5]; first compound 0.1581 µM,0.18
same,relative viability,[5]; first compound 0.5 µM,0.131
same,relative viability,[6]; first compound 0.005 µM,0.214
same,relative viability,[6]; first compound 0.01581 µM,0.228
same,relative viability,[6]; first compound 0.05 µM,0.232
same,relative viability,[6]; first compound 0.1581 µM,0.243
same,relative viability,[6]; first compound 0.5 µM,0.236
same,relative viability,[7]; first compound 0.005 µM,0.582
same,relative viability,[7]; first compound 0.01581 µM,0.622
same,relative viability,[7]; first compound 0.05 µM,0.588
same,relative viability,[7]; first compound 0.5 µM,0.607
same,relative viability,[8]; first compound 0.005 µM,0.324
same,relative viability,[8]; first compound 0.01581 µM,0.332
same,relative viability,[8]; first compound 0.05 µM,0.329
same,relative viability,[8]; first compound 0.5 µM,0.25
same,relative viability,[9]; first compound 0.005 µM,0.421
same,relative viability,[9]; first compound 0.01581 µM,0.476
same,relative viability,[9]; first compound 0.05 µM,0.5
same,relative viability,[9]; first compound 0.1581 µM,0.581
same,relative viability,[9]; first compound 0.5 µM,0.426
